These results are taken from publication PMC4482483, “Cationic Cell-Penetrating Peptides Are Potent Furin Inhibitors” (PLoS ONE, 2015).

In data set [1] the target is T1, soluble human furin (Homo sapiens, UniProt P09958).
T1 construct: Soluble human furin was purified from the conditioned medium; made in house; host or cells: CHO DG44 cells (stably transfected, methotrexate-amplified); purified from conditioned medium
As to conditions: cited from earlier work; for Ki: furin.

In data set [2] the target is T1, soluble human furin. The data set is described as follows: furin enzyme assay with fluorogenic substrate pERTKR-mca. As to conditions: for furin inhibition: peptide at 100 μM, 100 μM pERTKR-mca, Fig 1. Format: biochemical. The protocol: Soluble human furin was purified from the conditioned medium of stably-transfected, methotrexate-amplified CHO DG44 cells, as previously described. […] The HIV-1 TAT47-57 peptide was purchased from Creative Peptides (Shirley, NY). The Chariot reagent was purchased from Active Motif (Carlsbad, CA). […] The fourth peptide (W4-[R5]; N-acetyl-WWWW-[KRRRRR]) is N-terminally acetylated.
The furin assay was performed in 96-well polypropylene microtiter plates in a final volume of 50 μl, containing 100 mM HEPES, pH 7.0, 5 mM CaCl2, 0.1% Brij 35, 0.1% NaN3, and 0.1 mg/ml BSA. The substrate p-Glu-Arg-Thr-Lys-Arg-4-methylcoumaryl-7-amide (pERTKR-mca; Peptide Institute, Lexington, KY) was used at a final concentration of 100 μM. Furin was used at a final concentration of 20 nM. Reaction mixtures were incubated at 37°C and fluorescence measurements (380 nm excitation, 460 nm emission) were taken under kinetic conditions every minute for 60 min in a SpectraMax M2 microplate reader. […] After a 30-min preincubation at room temperature, 100 μM of pERTKR-methylaminocoumarin (mca) was added, and residual enzyme activities were monitored by measuring mca fluorescence intensity. Data were analyzed using Prism 5 as described previously. Due to cost considerations, Ki determinations were not performed for the HIV TAT peptide or for the Chariot reagent.
Soluble human furin, pre-incubated for 20 min at room temperature in the presence of (a) HIV-1 TAT (47–57) or (b) Chariot peptide, was tested at the specified concentrations. Furin activity was assessed by measuring the release of the fluorescent mca product from the fluorogenic substrate, pERTKR-mca.

Data set [3] concerns intracellular convertase activity in CHO-GRAPfurin cells. The data set is described as follows: SEAP activity assay (GRAPfurin Golgi reporter). As to conditions: 1 μM, 20–24 h at 37 °C. It counts as cell-based. The protocol: CHO-GRAPfurin cells expressing the hybrid reporter protein GRAPfurin, consisting of the secreted alkaline phosphatase (SEAP) protein fused to a Golgi retention signal and a specific furin recognition/cleavage site, […] The medium was collected, centrifuged, and heated for 30 min at 65°C to inactivate non-relevant phosphatases. To test SEAP activity, 2.5 μl of heated medium was mixed with 100 μl of assay buffer (100 mM Tris-HCl, pH 10, 100 mM NaCl, 5 mM MgCl2) and 100 μl of 36 μM 4-methylumbelliferyl phosphate (MUP), a phosphatase substrate, made in 50 mM Tris-HCl, pH 10. Fluorescence was measured every 20 seconds after excitation at 365 nm and recording emission at 460 nm at 37°C for 1 h. Since SEAP released from the tethered furin reporter is secreted, SEAP levels in the medium are proportional to the activity of Golgi furin [24, 25]. The experiments were independently repeated three times using triplicate wells per condition.
Fig 4 Cyclic polyarginine peptides inhibit cellular convertase activity. (a) CHO cells were incubated with each compound at 1 μM for 24 h at 37°C, and cell viability was monitored by incubation for 4 h with WST-1. […] Secreted alkaline phosphatase activity was measured in the medium. […]

The subject of data set [4] is HT1080 fibrosarcoma cells. The data set is described as follows: Oris cell migration assay. It counts as cell-based. The following applies: 10 μM peptide. The protocol:
HT1080 fibrosarcoma cells (ATCC# CCL-121) were cultured to 80% confluence in growth medium (MEM (Earle’s salts + L-glutamine) 10% FBS, 1:100 non-essential amino acids (NEAA), 1 mM sodium pyruvate, 500 U/ml penicillin-streptomycin, and 1% gentamycin; Life Technologies). Cells were plated in an Oris Cell Migration Assay (Platypus Technologies) 96-well plate at 10^5 cells per well, following the manufacturer’s protocol. The next day, the growth medium was removed, the wells rinsed with PBS, and the cells were incubated in assay medium MEM (Earle’s salts + L-glutamine) containing 10% heat-inactivated FBS, 1:100 NEAA, 1 mM sodium pyruvate, 500U/ml penicillin-streptomycin, and 1% gentamycin in the presence or absence of inhibitors for 24 h at 37°C and 5% CO2. After incubation cells were rinsed with PBS (calcium and 20 mM HEPES, pH 7.4, as per the manufacturer’s protocol), and incubated with the Live / Dead Cell Stain Kit containing 2 μM calcein AM and 4 μM ethidium homodimer (EthD-1) for 30 min at 37°C and 5% CO2. Fluorescence was then measured at 485/528 nm excitation/emission for calcein AM, and 530/645 nm for EthD-1. […]
Fig 2 Effect of HIV-1 TAT47-57 peptide on cell migration of fibrosarcoma HT1080 cells. Cells were incubated with either 10 μM of peptide or vehicle (water) for 24 h at 37°C and cell migration was measured as described in “Materials and Methods”. […]

Read-outs that look alike come from different tables or passages of the source.

T1 sequence (P09958 108-715 limits assumed): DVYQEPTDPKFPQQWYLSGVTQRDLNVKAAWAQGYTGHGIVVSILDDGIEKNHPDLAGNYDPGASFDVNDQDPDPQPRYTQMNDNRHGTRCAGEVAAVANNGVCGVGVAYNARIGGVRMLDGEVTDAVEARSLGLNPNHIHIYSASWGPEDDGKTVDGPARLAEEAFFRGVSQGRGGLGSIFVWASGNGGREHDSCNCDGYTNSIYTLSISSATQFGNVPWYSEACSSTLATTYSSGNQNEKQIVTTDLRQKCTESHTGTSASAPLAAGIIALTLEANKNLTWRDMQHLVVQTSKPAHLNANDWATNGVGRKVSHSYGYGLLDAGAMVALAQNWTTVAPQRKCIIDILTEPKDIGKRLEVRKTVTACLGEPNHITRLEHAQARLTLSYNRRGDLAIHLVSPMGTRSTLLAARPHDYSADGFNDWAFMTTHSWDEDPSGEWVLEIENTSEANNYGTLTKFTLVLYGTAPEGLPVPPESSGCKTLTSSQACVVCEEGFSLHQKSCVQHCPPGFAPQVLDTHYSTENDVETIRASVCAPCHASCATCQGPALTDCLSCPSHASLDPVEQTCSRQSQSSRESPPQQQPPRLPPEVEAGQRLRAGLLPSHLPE

What is called Ki is the equilibrium dissociation constant of an inhibitor or competing ligand from its target. For Nona-D-arginine amide, in data set [1], the “inhibition constants against furin and other convertases” value was “nanomolar range”; the Ki was 1.3 ± 2 nM.

Compound `CC(=O)N[C@@H](Cc1c[nH]c2ccccc12)C(=O)N[C@@H](Cc1c[nH]c2ccccc12)C(=O)N[C@@H](Cc1c[nH]c2ccccc12)C(=O)N[C@@H](Cc1c[nH]c2ccccc12)C(=O)NCCCC[C@@H]1NC(=O)[C@H](CCCNC(=N)N)NC(=O)[C@H](CCCNC(=N)N)NC(=O)[C@H](CCCNC(=N)N)NC(=O)[C@H](CCCNC(=N)N)NC(=O)[C@H](CCCNC(=N)N)NC1=O` [W4-[R5], N-acetyl-WWWW-[KRRRRR]] displayed an inhibition constant Ki in data set [2] of 100 ± 140 nM. Further, in data set [3], the “inhibition of intracellular convertase activity (SEAP release)” value is listed as “most effective compound in cells”.

For the compound hexa-D-arginine amide, in data set [1], the “inhibition constants against furin and other convertases” value is reported as “nanomolar range”; the Ki was 106 ± 10 nM.

As to `N=C(N)NCCC[C@@H]1NC(=O)[C@H](Cc2c[nH]c3ccccc23)NC(=O)[C@H](CS)NC(=O)[C@H](Cc2c[nH]c3ccccc23)NC(=O)[C@H](CCCNC(=N)N)NC(=O)[C@H](Cc2c[nH]c3ccccc23)NC(=O)[C@H](CCCNC(=N)N)NC(=O)[C@H](Cc2c[nH]c3ccccc23)NC(=O)[C@H](CCCNC(=N)N)NC(=O)[C@H](Cc2c[nH]c3ccccc23)NC1=O` [[W5R4C], [WRWRWRWRWC]], the Ki in data set [2] came out at 340 ± 20 nM.

On to KETWWETWWTEWSQPKKKRKV [Chariot], for which the furin inhibition in data set [2] is listed as ~ 60%.

A word on the inhibition: it is the percentage by which the read-out fell short of the control. In the case of `N=C(N)NCCC[C@H](NC(=O)[C@H](CCCNC(=N)N)NC(=O)[C@H](CCCNC(=N)N)NC(=O)[C@H](CCC(N)=O)NC(=O)[C@H](CCCNC(=N)N)NC(=O)[C@H](CCCNC(=N)N)NC(=O)[C@H](CCCCN)NC(=O)[C@H](CCCCN)NC(=O)[C@H](CCCNC(=N)N)NC(=O)CNC(=O)[C@@H](N)Cc1ccc(O)cc1)C(=O)O` [HIV-1 TAT47-57, YGRKKRRQRRR], the furin inhibition result in data set [2] is recorded as “nearly complete”. Besides, the inhibition at 10 µM in data set [2] (read-out: furin inhibition) is about 60%. In addition, the “toxicity to HT1080 cells” value in data set [4] is listed as “non-toxic”.
